The record followed here is publication PMC8468783, “New Flavone C-Glycosides from Scleranthus perennis and Their Anti-Collagenase Activity” (Molecules, 2021).

Data set [1] deals with collagenase from Clostridium histolyticum. Description: In vitro collagenase inhibition assay (spectrophotometric, FALGPA substrate). Type of data set: biochemical. Particulars: mean ± SD, triplicate; 0.1 U/mL collagenase, 0.8 mM FALGPA, Tricine buffer pH 7.5, 37 °C, 20 min incubation, absorbance at 335 nm; read-out: Anti-collagenase activity IC50. The procedure: The previous spectrophotometric procedure was modified and subsequently employed to determine the anti-collagenase activity of the isolated compounds [23]. This assay was performed in 50 mM Tricine buffer (pH = 7.5; 400 mM NaCl, 10 mM CaCl2). The mixed solution included 25 µL of 0.1 U/mL collagenase from Clostridium histolyticum, 25 µL Tricine buffer, and 25 µL of various levels of the sample were incubated at 37 °C for 20 min. After incubation, 75 µL of 0.8 mM FALGPA substrate was present. Then, absorbance was measured at 335 nm wavelength. Negative control was performed using Tricine buffer instead of sample and positive control was conducted with EGCG.
The percentage inhibition for assay was calculated by: Enzyme inhibition activity (%) = [1 − […]] × 100% where C is the negative control and S is the sample.

With `CC(=O)Oc1ccc(-c2cc(=O)c3c(O)cc(O)c(C4OCC(O)C(O)C4OC4OC(CO)C(O)C(O)C4O)c3o2)cc1O` [Compound 1, 5,7,3′-trihydroxy-4′-acetoxyflavone-8-C-β-D-xylopyranoside-2′′-O-glucoside], the melting point lay in the range of 188.5 to 189 °C. For the same compound, the half-maximal inhibitory concentration (IC50) in data set [1] worked out at 70.2 ± 1.37 µM. For `COc1ccc(-c2cc(=O)c3c(O)cc(O)c(C4OCC(O)C(O)C4OC4OC(CO)C(O)C(O)C4O)c3o2)cc1O` [Compound 2, 5,7,3′-trihydroxy-4′-methoxyflavone-8-C-β-D-xylopyranoside-2′′-O-glucoside], the melting point fell in the range of 178.5 to 179.2 °C. Further, in data set [1], the concentration for half-maximal inhibition (IC50) stood at 64.9 ± 1.08 µM. With `COc1cc(-c2cc(=O)c3c(O)cc(O)c(C4OCC(O)C(O)C4OC4OC(CO)C(O)C(O)C4O)c3o2)ccc1OC(C)=O` [Compound 3, 5,7-dihydroxy-3′-methoxy-4′-acetoxyflavone-8-C-β-D-xylopyranoside-2′′-O-glucoside], the concentration for half-maximal inhibition (IC50) in data set [1] was found to be 48.3 ± 1.05 µM.

In turn, `COc1cc(-c2cc(=O)c3c(O)cc(O)c(C4OCC(O)C(O)C4OC4OC(CO)C(OC(C)=O)C(O)C4O)c3o2)ccc1OC(C)=O` [Compound 4, 5,7-dihydroxy-3′-methoxy-4′-acetoxyflavone-8-C-β-D-xylopyranoside-2′′-O-(4′′′-acetoxy)-glucoside] had a melting point of 164.6 to 166.2 °C. Moreover, the 50% inhibitory concentration (IC50) in data set [1] was found to be 36.1 ± 0.78 µM.

As for `COc1ccc(C(C)=O)c(O[C@@H]2O[C@H](CO[C@@H]3OC[C@](O)(CO)[C@H]3O)[C@@H](O)[C@H](O)[C@H]2O)c1` [Compound 5, apiopaenonside], in data set [1], the half-maximal inhibitory concentration (IC50) was more than 125 µM. Same read-out and setting: under `O=C(O[C@@H]1Cc2c(O)cc(O)cc2O[C@@H]1c1cc(O)c(O)c(O)c1)c1cc(O)c(O)c(O)c1` [EGCG, Epigallocatechin gallate, reference compound] stands 34.32 ± 0.21 µM.

The IC50 is the point on the concentration scale where inhibition reaches its midpoint. For orientation: melting point means the temperature, or range, at which the solid turns liquid.
